Source: PMC12434519

Key:
human RNMT-RAM complex = human RNMT-RAM complex (Homo sapiens, UniProt O43148); experiment: Biochemical activity assay for the human RNMT-RAM complex (MTase-Glo); conditions: for IC50: LUM % inhibition, read-out: hRNMT-RAM inhibition: IC50; for hRNMT-RAM inhibition: Hill slope: fit of concentration-response curve; for Emax: read-out: hRNMT-RAM inhibition: Maximum response
ZIKV NS5 = ZIKV NS5 (Zika virus, UniProt Q32ZE1); experiment: Biochemical activity assay for ZIKV NS5 MTase (MTase-Glo); conditions: for Emax: 0.75 h, read-out: ZIKV NS5 inhibition: Maximum measured; for Emax / IC50: LUM % inhibition; for ZIKV NS5 inhibition: Hill slope: fit of concentration-response curve
ZIKV NS5, sequence (Q32ZE1 2517-2781): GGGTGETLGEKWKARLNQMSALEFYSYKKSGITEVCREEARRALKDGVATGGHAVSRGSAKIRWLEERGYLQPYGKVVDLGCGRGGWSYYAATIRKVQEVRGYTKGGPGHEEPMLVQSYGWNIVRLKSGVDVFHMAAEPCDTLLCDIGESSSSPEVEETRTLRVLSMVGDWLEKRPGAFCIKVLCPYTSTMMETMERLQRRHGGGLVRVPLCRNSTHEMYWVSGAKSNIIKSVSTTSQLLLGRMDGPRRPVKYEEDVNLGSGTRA
Procedure: final concentration, lab stock) during dialysis at 4 °C overnight against a buffer containing 50 mM Tris-HCl, pH 7.5, 20 mM imidazole, 500 mM NaCl, and 1 mM dithiothreitol (DTT). To remove the His6-SUMO tag, the protein sample was mixed with cOmplete His-Tag purification resin (Roche), incubated for 2 h at 4 °C, and loaded onto a gravity flow column. Since the His6-SUMO tag bound to the column material, the flow-through was collected containing untagged target protein. The target protein was further purified by a Superdex200 10/300 gel filtration column (GE Healthcare) in buffer (20 mM Tris-HCl, pH 7.5, 500 mM NaCl, 1 mM DTT). Fractions were analyzed by SDS-PAGE and Coomassie staining. Protein-containing fractions were pooled, flash-frozen in liquid nitrogen, and stored at -80 °C. […]
in 1X NSP14 reaction buffer (50 mM Tris-HCl, pH 7.5, 6 mM KCl, 1.25 mM MgCl2, 1 mM DTT, and 0.01% Tween-20) in a total reaction volume of 16 µl in absence or presence of increasing inhibitor compound concentrations for 45 min at 37 °C. SAH production was monitored using the bioluminescence-based MTase-Glo™ Methyltransferase Assay kit (Promega) following manufacturer’s instructions. The luminescence signal of each reaction was recorded in relative light units (RLUs) using a Synergy Neo plate reader (BioTek, Winooski, VT). […] IC50 values (mean from at least 3 independent experiments) were calculated using the GraphPad Prism software (Version 10.1.1) and a four-parameter logistic regression.
Biochemical activity assays for the human RNMT-RAM complex and ZIKV NS5 MTases Activity assays were performed in 1x NSP14 reaction buffer. For hRNMT-RAM, we used 15 nM enzyme, 2.5 µM GpppG and 2 µM SAM. For ZIKV NS5, we used 25 nM enzyme, 3 µM […]
Gppp[…]3, and 5 µM SAM. The enzymatic reaction was initiated with the addition of the enzyme in assay buffer and incubated at RT or 37 °C for 45 min, respectively. SAH was detected using the MTase-Glo™ assay.
Differential scanning fluorimetry (DSF)

[1] = SAH counterscreen inhibition (counterscreen of the MTase-Glo luminescence readout); conditions: for SAH counterscreen inhibition: Maximum response / IC50: LUM % inhibition; for SAH counterscreen inhibition: Hill slope: fit of concentration-response curve; for IC50: read-out: SAH counterscreen inhibition: IC50

human RNMT-RAM complex, sequence (O43148 whole entry): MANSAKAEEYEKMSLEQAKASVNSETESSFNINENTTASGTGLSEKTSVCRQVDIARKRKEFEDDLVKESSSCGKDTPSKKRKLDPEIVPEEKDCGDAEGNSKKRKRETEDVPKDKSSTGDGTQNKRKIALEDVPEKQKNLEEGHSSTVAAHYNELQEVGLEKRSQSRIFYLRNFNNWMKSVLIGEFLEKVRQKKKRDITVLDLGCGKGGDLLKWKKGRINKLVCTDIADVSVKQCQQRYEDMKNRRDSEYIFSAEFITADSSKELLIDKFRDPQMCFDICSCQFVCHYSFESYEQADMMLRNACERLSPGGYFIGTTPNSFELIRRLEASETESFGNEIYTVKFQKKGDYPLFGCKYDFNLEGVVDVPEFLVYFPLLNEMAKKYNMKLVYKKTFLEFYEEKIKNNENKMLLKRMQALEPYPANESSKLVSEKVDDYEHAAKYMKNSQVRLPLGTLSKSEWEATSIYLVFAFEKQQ
human RNMT-RAM complex, sequence (Q9BTL3 whole entry partner): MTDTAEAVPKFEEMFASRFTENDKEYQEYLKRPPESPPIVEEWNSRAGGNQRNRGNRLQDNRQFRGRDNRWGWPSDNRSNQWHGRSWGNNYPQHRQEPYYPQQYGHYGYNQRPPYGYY

Row | SMILES | IC50 (human RNMT-RAM complex) | hRNMT-RAM inhibition: Hill slope (human RNMT-RAM complex) | Emax (human RNMT-RAM complex) | Emax (ZIKV NS5) | IC50 (ZIKV NS5) | ZIKV NS5 inhibition: Hill slope (ZIKV NS5) | SAH counterscreen inhibition: Maximum response [1] | SAH counterscreen inhibition: Hill slope [1] | IC50 [1]
1 | Cc1cccc(C(=O)NCC2CCC3(CN(C(=O)c4cc(C)c5[nH]ncc5c4)C3)O2)c1F (stereo not drawn) [RU-0834174, CC1=CC(C(=O)N2CC3(C2)CCC(CNC(=O)C2=CC=CC(C)=C2F)O3)=CC2=C1NN=C2] | > 250 µM | 0.374 | 26.5% | 12.9% | > 250 µM | 1.95 | 16.2% | -17 | > 125 µM
2 | C[C@@H](NC(=O)c1ccc(CNC(=O)c2ccc3[nH]ncc3c2)cc1)c1cccc(O)c1 [RU-0834179, C[C@@H](NC(=O)C1=CC=C(CNC(=O)C2=CC=C3NN=CC3=C2)C=C1)C1=CC(O)=CC=C1] | > 250 µM | 0.0614 | 6.78% | 12.5% | > 250 µM | 1.12 | 14.4% | 11.5 | > 125 µM
3 | Cc1nccc(C(=O)NCC2CCC3(CN(C(=O)c4cc(C)c5[nH]ncc5c4)C3)O2)c1C (stereo not drawn) [RU-0834173, CC1=C2C(=CC(C(=O)N3CC4(C3)CCC(CNC(=O)C3=C(C)C(C)=NC=C3)O4)=C1)C=NN2] | > 250 µM | 1.99 | 3.36% | 10.3% | > 250 µM | 20.4 | 12.6% | -9.25 | > 125 µM
4 | Cc1cc(C)c(C(=O)NCc2ccc(CNC(=O)c3ccc(O)c(C)c3)cc2)cn1 [RU-0834181, CC1=CC(C(=O)NCC2=CC=C(CNC(=O)C3=CN=C(C)C=C3C)C=C2)=CC=C1O] | > 250 µM | 0.346 | 20.8% | 14.9% | > 250 µM | 0.143 | 12.2% | 63.6 | > 125 µM
5 | Cc1ccc(C)c(C(=O)NCC2CCC3(CN(C(=O)c4cc(C)c(O)c(C)c4)C3)O2)c1C (stereo not drawn) [RU-0834178, CC1=CC(C(=O)N2CC3(C2)CCC(CNC(=O)C2=C(C)C=CC(C)=C2C)O3)=CC(C)=C1O] | > 250 µM | 13.1 | 3.1% | 20.5% | > 250 µM | 0.402 | 18.2% | -6.31 | > 125 µM
6 | Cc1ccc(NC(=O)Cn2nnc3ccccc3c2=O)cc1S(=O)(=O)N1CCCCC1 [RU-0833928, S(=O)(=O)(N1CCCCC1)c1c(C)ccc(NC(=O)CN2N=Nc3c(cccc3)C2=O)c1] | > 250 µM | 0.501 | 8.18% | 9.49% | > 250 µM | -7.54 | 21.6% | -3.01 | > 125 µM
7 | Cc1cnc(C(=O)NCc2ccc(CNC(=O)c3ccc(O)c(C)c3)cc2)c(C)c1 [RU-0834201, CC1=CC(C)=C(C(=O)NCC2=CC=C(CNC(=O)C3=CC=C(O)C(C)=C3)C=C2)N=C1] | > 250 µM | 35.3 | 6.56% | 12.1% | > 250 µM | 0.157 | 14.6% | -59.4 | > 125 µM
8 | Cc1nc(C)c(C(=O)NCc2ccc(CNC(=O)c3ccc(O)c(F)c3)cc2)nc1C [RU-0834080, CC1=NC(C)=C(C)N=C1C(=O)NCC1=CC=C(CNC(=O)C2=CC(F)=C(O)C=C2)C=C1] | > 250 µM | 1.28 | 23.1% | 18.4% | > 250 µM | 1.81 | 16.2% | -2.71 | > 125 µM
